Laboratory results published in patent US20120129811A1, “TRICYCLIC INHIBITORS OF PRO-MATRIX METALLOPROTEINASE ACTIVATION” (priority 2010, published 2012).
Where a name gives a salt, the structure may show the parent alone.

What was measured:
[1] = target: T1, full-length proMMP9(1-707) activation by catalytic MMP3 (Homo sapiens, UniProt P14780, R574P); experiment: proMMP9/MMP3 P126 Activation Assay; assay type: biochemical
T1 construct: made in house; host or cells: proMMP9: HEK293 (secreted); MMP3: E. coli
Method: proMMP9/MMP3 P126 Activation Assay
The reaction volume was 50 μL. […] Reactivity of residual MMP3 towards P-126 substrate was minimal under these conditions.

[2] = target: T2, proMMP9(20-445;ΔFnII) (SEQ ID NO:6) (Homo sapiens, UniProt P14780, DEL216-390); experiment: ThermoFluor binding assay with proMMP9(20-445;ΔFnII)
T2 construct: start methionine (N); made in house; host or cells: E. coli BL21(DE3) RIL
T2 sequence (P14780 with tags, fused parts or gaps DEL216-390): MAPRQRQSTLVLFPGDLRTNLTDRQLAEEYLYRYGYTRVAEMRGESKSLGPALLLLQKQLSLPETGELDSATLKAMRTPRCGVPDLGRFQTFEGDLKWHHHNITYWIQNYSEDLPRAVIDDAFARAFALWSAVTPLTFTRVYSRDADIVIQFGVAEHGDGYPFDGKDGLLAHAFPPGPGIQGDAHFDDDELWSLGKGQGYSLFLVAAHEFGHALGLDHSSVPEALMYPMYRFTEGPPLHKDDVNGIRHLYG
Method in brief: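 Protein thermal stability was measured with 2.8 μM proMMP9(20-445;ΔFnII) and 50 μM 1,8-ANS in 50 mM HEPES pH 7.0, 100 mM NaCl, 0.001% Tween-20, 2.5 mM MgCl2, 300 μM CaCl2, across serial compound dilutions. Samples were heated 40–90° C at 1° C/min with fluorescence read at 500 nm. Tm was fitted, and binding was derived from thermodynamic parameters obtained by DSC and ThermoFluor.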

[3] = target: T3, proMMP9(67-444;ΔFnII) (SEQ ID NO:5) (Homo sapiens, UniProt P14780, DEL216-390); experiment: ThermoFluor binding assay with proMMP9(67-444;ΔFnII)
T3 construct: start methionine (N); made in house; host or cells: E. coli BL21(DE3) RIL
T3 sequence (P14780 with tags, fused parts or gaps DEL216-390): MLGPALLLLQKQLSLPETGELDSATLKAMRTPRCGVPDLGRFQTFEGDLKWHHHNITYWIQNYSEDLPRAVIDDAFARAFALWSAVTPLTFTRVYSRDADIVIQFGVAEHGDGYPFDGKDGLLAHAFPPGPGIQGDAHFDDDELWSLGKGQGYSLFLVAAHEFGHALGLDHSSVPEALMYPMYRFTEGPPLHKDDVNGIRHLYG
Method in brief: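 Thermal shift of 3.5 μM proMMP9(67-444;ΔFnII), desalted beforehand, with 50 μM 1,8-ANS in 50 mM HEPES pH 7.0, 100 mM NaCl, 2.5 mM MgCl2, 300 μM CaCl2, 0.001% Tween-20. Heated 40–90 °C at 1 °C/min, fluorescence read at 500 nm; binding fitted from Tm shifts using DSC- and ThermoFluor-derived unfolding parameters.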

T1 sequence (P14780 20-707 R574P): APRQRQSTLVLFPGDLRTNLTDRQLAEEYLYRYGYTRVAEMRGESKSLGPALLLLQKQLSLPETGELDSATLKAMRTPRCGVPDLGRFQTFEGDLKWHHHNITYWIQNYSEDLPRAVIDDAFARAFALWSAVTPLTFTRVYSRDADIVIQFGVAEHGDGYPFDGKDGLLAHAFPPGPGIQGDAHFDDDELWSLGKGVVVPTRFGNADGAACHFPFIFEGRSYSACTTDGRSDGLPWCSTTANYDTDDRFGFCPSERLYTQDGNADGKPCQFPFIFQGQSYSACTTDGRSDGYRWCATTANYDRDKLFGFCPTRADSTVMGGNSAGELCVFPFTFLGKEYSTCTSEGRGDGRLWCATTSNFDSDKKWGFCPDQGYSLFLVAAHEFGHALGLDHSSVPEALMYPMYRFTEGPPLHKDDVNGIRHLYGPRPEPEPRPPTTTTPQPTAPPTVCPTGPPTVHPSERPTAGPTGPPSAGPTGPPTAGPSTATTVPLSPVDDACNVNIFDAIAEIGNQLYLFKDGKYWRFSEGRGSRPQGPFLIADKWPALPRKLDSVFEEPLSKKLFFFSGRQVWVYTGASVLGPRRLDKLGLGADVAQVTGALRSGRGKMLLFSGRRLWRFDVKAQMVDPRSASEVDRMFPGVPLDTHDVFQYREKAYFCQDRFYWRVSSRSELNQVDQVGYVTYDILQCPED

Row | Structure (SMILES) | IC50 [1] [nM] | Kd [2] [nM] | Kd [3] [nM]
1 | CCn1c(C)nc2ccc3sc(Nc4cc(S(N)(=O)=O)ccc4OC)nc3c21 [Example 129, 3-(8-Ethyl-7-methyl-8H-imidazo[4′,5′:3,4]benzo[2,1-d]thiazol-2-ylamino)-4-methoxy-benzenesulfonamide.TFA] | 420 | 1200 | 520
2 | CCn1c(C)nc2ccc3sc(Nc4ccccc4OC)nc3c21 [Example 120, (8-Ethyl-7-methyl-8H-imidazo[4′,5′:3,4]benzo[2,1-d]thiazol-2-yl)-(2-methoxy-phenyl)-amine.TFA] | 480 | 3400 | 2600
3 | COc1ccccc1Nc1nc2c(ccc3nc(C)n(C)c32)s1 [Example 124, (7,8-Dimethyl-8H-imidazo[4′,5′:3,4]benzo[2,1-d]thiazol-2-yl)-(2-methoxy-phenyl)-amine.TFA] | 470 | 5700 | 2800
4 | COc1ccc(C(F)(F)F)cc1Nc1nc2c(ccc3c2ncn3C)s1 [Example 50, (2-Methoxy-5-trifluoromethyl-phenyl)-(6-methyl-6H-imidazo[4′,5′: 3,4]benzo[2,1-d]thiazol-2-yl)-amine.HCl] | 1100 | 3000 | 1500
5 | COc1ccc(C#N)cc1Nc1nc2c(ccc3c2cnn3C)s1 [Example 112, 4-Methoxy-3-(6-methyl-6H-3-thia-1,6,7-triaza-as-indacen-2-ylamino)-benzonitrile.TFA] | 160 | > 95000 | 7000
6 | CC(C)Oc1ccncc1Nc1nc2c(ccc3c2ncn3C)s1 [Example 157, N-(4-Isopropoxypyridin-3-yl)-6-methyl-6H-imidazo[4′,5′:5,6]benzo[1,2-d]thiazol-2-amine.HCl] | 42 | 350 | 18
7 | CCn1c(C)nc2ccc3sc(Nc4cnccc4OC(C)C)nc3c21 [Example 159, 8-Ethyl-N-(4-isopropoxypyridin-3-yl)-7-methyl-8H-imidazo[4′,5′:5,6]benzo[1,2-d]thiazol-2-amine.HCl] | 66 | 380 | 43
8 | COc1c(F)cc(C(N)=O)cc1Nc1nc2c(ccc3c2ncn3C)s1 [Example 48, 3-Fluoro-4-methoxy-5-(6-methyl-6H-imidazo[4′,5′:3,4]benzo[2,1-d]thiazol-2-ylamino)-benzamide.HCl] | 360 | 1900 | 810
9 | NC(=O)c1ccc(OC(F)(F)F)c(Nc2nc3c(ccc4cnccc43)s2)c1 [Example 114, 3-(Thiazolo[4,5-f]isoquinolin-2-ylamino)-4-trifluoromethoxy-benzamide.TFA] | ~2200 | 1200 | 4600
10 | CCn1c(C)nc2ccc3sc(Nc4cc(S(C)(=O)=O)ccc4OC(C)C)nc3c21 [Example 143, (8-Ethyl-7-methyl-8H-imidazo[4′,5′:3,4]benzo[2,1-d]thiazol-2-yl)-(2-isopropoxy-5-methanesulfonyl-phenyl)-amine.TFA] | 160 | 1200 | 260
11 | COc1ccc(S(C)(=O)=O)cc1Nc1nc2c(ccc3nc(C)n(CC(F)(F)F)c32)s1 [Example 138, (5-Methanesulfonyl-2-methoxy-phenyl)-[7-methyl-8-(2,2,2-trifluoro-ethyl)-8H-imidazo[4′,5′:3,4]benzo[2,1-d]thiazol-2-yl]-amine.TFA] | 560 | 690 | 480
12 | CCn1c(C)nc2ccc3sc(Nc4cc(S(N)(=O)=O)ccc4OC(C)C)nc3c21 [Example 118, 3-(8-Ethyl-7-methyl-8H-imidazo[4′,5′:3,4]benzo[2,1-d]thiazol-2-ylamino)-4-isopropoxy-benzenesulfonamide.TFA] | 510 | 290 | 860
13 | COc1ccc(S(N)(=O)=O)cc1Nc1nc2c(ccc3nc(C)n(C)c32)s1 [Example 123, 3-(7,8-Dimethyl-8H-imidazo[4′,5′:3,4]-benzo[2,1-d]thiazol-2-ylamino)-4-methoxy-benzenesulfonamide.TFA] | 810 | 5300 | 4700
14 | CC(C)Oc1ccc(S(N)(=O)=O)cc1Nc1nc2c(ccc3cnccc32)s1 [Example 105, 4-Isopropoxy-3-(thiazolo[4,5-f]isoquinolin-2-ylamino)-benzenesulfonamide.TFA] | 850 | 65000 | 800
15 | Cn1ncc2c3nc(Nc4cc(S(N)(=O)=O)ccc4OC(F)(F)F)sc3ccc21 [Example 101, 3-(6-Methyl-6H-3-thia-1,6,7-triaza-as-indacen-2-ylamino)-4-trifluoromethoxy-benzenesulfonamide.TFA] | 760 | 790 | 430
16 | COc1ccc(Nc2nc3c(ccc4c3ncn4C)s2)c(OC)c1 [Example 78, (2,4-Dimethoxy-phenyl)-(6-methyl-6H-imidazo[4′,5′:3,4]-benzo[2,1-d]thiazol-2-yl)-amine.HCl] | 4000 | 10000 | 3400
17 | CCn1c(C)nc2ccc3sc(Nc4cc(F)ccc4OC)nc3c21 [Example 121, (8-Ethyl-7-methyl-8H-imidazo[4′,5′:3,4]benzo[2,1-d]thiazol-2-yl)-(5-fluoro-2-methoxy-phenyl)-amine.TFA] | 310 | 4000 | 860
18 | Cn1cnc2c3nc(Nc4cc(C#N)ccc4OC(F)(F)F)sc3ccc21 [Example 164] | 180 | 360 | 110
19 | COc1ccc(S(C)(=O)=O)cc1Nc1nc2c(ccc3cnn(C)c32)s1 [Example 150, (5-Methanesulfonyl-2-methoxy-phenyl)-(1-methyl-1H-6-thia-1,2,8-triaza-as-indacen-7-yl)-amine.TFA] | 340 | 8800 | 1200
20 | CCOc1ccccc1Nc1nc2c(ccc3sc(N)nc32)s1 [Example 3, N^7-(2-Ethoxy-phenyl)-benzo[2,1-d;3,4-d′]bisthiazole-2,7-diamine.TFA] | 1400 | 3200 | 1600
21 | COc1ccc(S(N)(=O)=O)cc1Nc1nc2c(ccc3c2cnn3C)s1 [Example 103, 4-Methoxy-3-(6-methyl-6H-3-thia-1,6,7-triaza-as-indacen-2-ylamino)-benzenesulfonamide.TFA] | 380 | 750 | 370
22 | COc1ccc(S(N)(=O)=O)cc1Nc1nc2c(ccc3ncn(C)c32)s1 [Example 130, 4-Methoxy-3-(8-methyl-8H-imidazo[4′,5′:3,4]benzo[2,1-d]thiazol-2-ylamino)-benzenesulfonamide.TFA] | 830 | > 95000 | 1200
23 | CCn1c(C)nc2ccc3sc(Nc4cc(S(N)(=O)=O)ccc4OC(F)(F)F)nc3c21 [Example 122, 3-(8-Ethyl-7-methyl-8H-imidazo[4′,5′:3,4]benzo[2,1-d]thiazol-2-ylamino)-4-trifluoromethoxy-benzenesulfonamide.TFA] | 650 | 1200 | 340
24 | COc1ccccc1Nc1nc2c(ccc3c2ncn3C)s1 [Example 46, (2-Methoxy-phenyl)-(6-methyl-6H-imidazo[4′,5′:3,4]benzo[2,1-d]thiazol-2-yl)-amine.HCl] | 150 | 640 | 240
25 | COc1ccncc1Nc1nc2c(ccc3ncn(CC(F)(F)F)c32)s1 [Example 153, N-(4-Methoxypyridin-3-yl)-8-(2,2,2-trifluoroethyl)-8H-imidazo[4′,5′:5,6]-benzo[1,2-d]thiazol-2-amine] | 650 | 1400 | 600
26 | COc1ccc(Br)cc1Nc1nc2c(ccc3c2ncn3C)s1 [Example 69, (5-Bromo-2-methoxy-phenyl)-(6-methyl-6H-imidazo[4′,5%3,4]benzo[2,1-d]thiazol-2-yl)-amine.HCl] | 300 | 430 | 220
27 | CCn1c(C)nc2ccc3sc(Nc4cc(S(C)(=O)=O)ccc4OC)nc3c21 [Example 133, (8-Ethyl-7-methyl-8H-imidazo[4′,5′:3,4]benzo[2,1-d]thiazol-2-yl)-(5-methanesulfonyl-2-methoxy-phenyl)-amine.TFA] | 280 | 1300 | 310
